Experimental data from ChEMBL document CHEMBL5360547 (Eur J Med Chem, 2023).

Tested on: Cortical neurone
Experiment: Neuroprotective activity against oxygen glucose deprivation induced ischemic stroke model in primary C57BL/6J E14-17 mouse Cortical neurons assessed as increase in cell viability at 1 uM incubated for 24 hrs by CCK-8 assay (Rvb= 57.43 +/- 2.54 %)
Assay type: functional
Details: not given

| SMILES | Activity |
| --- | --- |
| CCCCCC(C)N[C@@H]1CC[C@@H](c2ccc(Cl)c(Cl)c2)c2ccccc21 (relative stereo) | 58.02% |
| Clc1ccc([C@@H]2CC[C@@H](NC3CCCCC3)c3ccccc32)cc1Cl (relative stereo) | 61.62% |
| CC(N[C@@H]1CC[C@@H](c2ccc(Cl)c(Cl)c2)c2ccccc21)c1ccccc1 (some centres not stated) | 45.67% |
| Clc1ccc([C@@H]2CC[C@@H](NCc3ccc4c(c3)OCO4)c3ccccc32)cc1Cl (relative stereo) | 63.19% |
| COc1ccc(CN[C@@H]2CC[C@@H](c3ccc(Cl)c(Cl)c3)c3ccccc32)cc1OC (relative stereo) | 62.06% |
| FC(F)(F)c1cccc(CN[C@@H]2CC[C@@H](c3ccc(Cl)c(Cl)c3)c3ccccc32)c1 (relative stereo) | 65.74% |
| CCCN[C@@H]1CC[C@@H](c2ccc(Cl)c(Cl)c2)c2ccccc21 (relative stereo) | 62.89% |
| Clc1ccc([C@@H]2CC[C@@H](NCCCCc3ccccc3)c3ccccc32)cc1Cl (relative stereo) | 57.11% |
| Cc1ccc(CN[C@@H]2CC[C@@H](c3ccc(Cl)c(Cl)c3)c3ccccc32)cc1 (relative stereo) | 60.9% |
| N[C@@H]1CC[C@@H](c2ccc(Cl)c(Cl)c2)c2ccccc21 (relative stereo) [DASOTRALINE] | 57.14% |
| Clc1ccc([C@@H]2CC[C@@H](NCC3CCCCC3)c3ccccc32)cc1Cl (relative stereo) | 64.56% |
| Clc1ccc([C@@H]2CC[C@@H](NCCc3c[nH]c4ccccc34)c3ccccc32)cc1Cl (relative stereo) | 52.97% |
| O=C(CCCCl)N[C@@H]1CC[C@@H](c2ccc(Cl)c(Cl)c2)c2ccccc21 (relative stereo) | 63.86% |
| Clc1ccc([C@@H]2CC[C@@H](NCCN3CCNCC3)c3ccccc32)cc1Cl | 56.76% |
| CCCCN[C@@H]1CC[C@@H](c2ccc(Cl)c(Cl)c2)c2ccccc21 (relative stereo) | 54.27% |
| CC(C)CN[C@@H]1CC[C@@H](c2ccc(Cl)c(Cl)c2)c2ccccc21 (relative stereo) | 56.47% |
| CC(=O)N[C@@H]1CC[C@@H](c2ccc(Cl)c(Cl)c2)c2ccccc21 (relative stereo) | 66.22% |
| CC1=NN(c2ccccc2)C(=O)C1 [EDARAVONE] | 64.39% |
| CN[C@@H]1CC[C@@H](c2ccc(Cl)c(Cl)c2)c2ccccc21 (racemic) | 59.29% |
| Clc1ccc([C@@H]2CC[C@@H](NCc3cccc4ccccc34)c3ccccc32)cc1Cl (relative stereo) | 61.36% |

Tested on: SH-SY5Y
Experiment: Neuroprotective activity against oxygen glucose deprivation induced ischemic stroke model in human SH-SY5Y cells assessed as cell viability at 2 uM incubated for 24 hrs by CCK-8 assay
Assay type: functional
Details: read-out: Activity

| SMILES | viability at 2 µM |
| --- | --- |
| CC1=NN(c2ccccc2)C(=O)C1 [EDARAVONE] | 71.3% |

Tested on: Cortical neurone
Experiment: Neuroprotective activity against oxygen glucose deprivation induced ischemic stroke model in primary C57BL/6J E14-17 mouse Cortical neurons assessed as increase in cell viability at 0.5 to 20 uM incubated for 24 hrs by CCK-8 assay
Assay type: functional, cell-based
Details: dose 0.5-20 µM

| SMILES | Activity |
| --- | --- |
| Clc1ccc([C@@H]2CC[C@@H](NC3CCCCC3)c3ccccc32)cc1Cl (relative stereo) | Dose-Dependent Effect |
| COc1ccc(CN[C@@H]2CC[C@@H](c3ccc(Cl)c(Cl)c3)c3ccccc32)cc1OC (relative stereo) | Dose-Dependent Effect |
| CC(=O)N[C@@H]1CC[C@@H](c2ccc(Cl)c(Cl)c2)c2ccccc21 (relative stereo) | Dose-Dependent Effect |

Tested on: Cortical neurone
Experiment: Cytotoxicity against primary C57BL/6J E14-17 mouse Cortical neuron assessed as decrease in cell viability upto 50 uM incubated for 24 hrs by CCK-8 assay
Assay type: toxicity, cell-based
Details: not given

| SMILES | Activity |
| --- | --- |
| Clc1ccc([C@@H]2CC[C@@H](NC3CCCCC3)c3ccccc32)cc1Cl (relative stereo) | Toxic |
| COc1ccc(CN[C@@H]2CC[C@@H](c3ccc(Cl)c(Cl)c3)c3ccccc32)cc1OC (relative stereo) | Toxic |
| CC(=O)N[C@@H]1CC[C@@H](c2ccc(Cl)c(Cl)c2)c2ccccc21 (relative stereo) | Toxic |

Tested on: Cortical neurone
Experiment: Cytotoxicity against primary C57BL/6J E14-17 mouse Cortical neuron assessed as decrease in cell viability at 10 uM incubated for 24 hrs by CCK-8 assay relative to control
Assay type: toxicity, cell-based
Details: not given

| SMILES | Activity |
| --- | --- |
| CCCCCC(C)N[C@@H]1CC[C@@H](c2ccc(Cl)c(Cl)c2)c2ccccc21 (relative stereo) | 84.74% |
| Clc1ccc([C@@H]2CC[C@@H](NC3CCCCC3)c3ccccc32)cc1Cl (relative stereo) | 102.77% |
| CC(N[C@@H]1CC[C@@H](c2ccc(Cl)c(Cl)c2)c2ccccc21)c1ccccc1 (some centres not stated) | 45.32% |
| Clc1ccc([C@@H]2CC[C@@H](NCc3ccc4c(c3)OCO4)c3ccccc32)cc1Cl (relative stereo) | 95.94% |
| COc1ccc(CN[C@@H]2CC[C@@H](c3ccc(Cl)c(Cl)c3)c3ccccc32)cc1OC (relative stereo) | 95.48% |
| FC(F)(F)c1cccc(CN[C@@H]2CC[C@@H](c3ccc(Cl)c(Cl)c3)c3ccccc32)c1 (relative stereo) | 85.87% |
| CCCN[C@@H]1CC[C@@H](c2ccc(Cl)c(Cl)c2)c2ccccc21 (relative stereo) | 100.55% |
| Clc1ccc([C@@H]2CC[C@@H](NCCCCc3ccccc3)c3ccccc32)cc1Cl (relative stereo) | 94.37% |
| Cc1ccc(CN[C@@H]2CC[C@@H](c3ccc(Cl)c(Cl)c3)c3ccccc32)cc1 (relative stereo) | 84.46% |
| N[C@@H]1CC[C@@H](c2ccc(Cl)c(Cl)c2)c2ccccc21 (relative stereo) [DASOTRALINE] | 95.38% |
| Clc1ccc([C@@H]2CC[C@@H](NCC3CCCCC3)c3ccccc32)cc1Cl (relative stereo) | 103.51% |
| Clc1ccc([C@@H]2CC[C@@H](NCCc3c[nH]c4ccccc34)c3ccccc32)cc1Cl (relative stereo) | 96.14% |
| O=C(CCCCl)N[C@@H]1CC[C@@H](c2ccc(Cl)c(Cl)c2)c2ccccc21 (relative stereo) | 84.35% |
| Clc1ccc([C@@H]2CC[C@@H](NCCN3CCNCC3)c3ccccc32)cc1Cl | 31.8% |
| CCCCN[C@@H]1CC[C@@H](c2ccc(Cl)c(Cl)c2)c2ccccc21 (relative stereo) | 94.94% |
| CC(C)CN[C@@H]1CC[C@@H](c2ccc(Cl)c(Cl)c2)c2ccccc21 (relative stereo) | 73.99% |
| CC(=O)N[C@@H]1CC[C@@H](c2ccc(Cl)c(Cl)c2)c2ccccc21 (relative stereo) | 101.23% |
| CC1=NN(c2ccccc2)C(=O)C1 [EDARAVONE] | 96.6% |
| CN[C@@H]1CC[C@@H](c2ccc(Cl)c(Cl)c2)c2ccccc21 (racemic) | 92.08% |
| Clc1ccc([C@@H]2CC[C@@H](NCc3cccc4ccccc34)c3ccccc32)cc1Cl (relative stereo) | 96.52% |

Tested on: Cortical neurone
Experiment: Neuroprotective activity against oxygen glucose deprivation induced ischemic stroke model in primary C57BL/6J E14-17 mouse Cortical neurons assessed as increase in cell viability at 10 uM incubated for 24 hrs by CCK-8 assay (Rvb= 57.43 +/- 2.54 %)
Assay type: functional
Details: not given

| SMILES | Activity |
| --- | --- |
| CCCCCC(C)N[C@@H]1CC[C@@H](c2ccc(Cl)c(Cl)c2)c2ccccc21 (relative stereo) | 60.07% |
| Clc1ccc([C@@H]2CC[C@@H](NC3CCCCC3)c3ccccc32)cc1Cl (relative stereo) | 69.46% |
| CC(N[C@@H]1CC[C@@H](c2ccc(Cl)c(Cl)c2)c2ccccc21)c1ccccc1 (some centres not stated) | 51.75% |
| Clc1ccc([C@@H]2CC[C@@H](NCc3ccc4c(c3)OCO4)c3ccccc32)cc1Cl (relative stereo) | 57.62% |
| COc1ccc(CN[C@@H]2CC[C@@H](c3ccc(Cl)c(Cl)c3)c3ccccc32)cc1OC (relative stereo) | 66.65% |
| FC(F)(F)c1cccc(CN[C@@H]2CC[C@@H](c3ccc(Cl)c(Cl)c3)c3ccccc32)c1 (relative stereo) | 59% |
| CCCN[C@@H]1CC[C@@H](c2ccc(Cl)c(Cl)c2)c2ccccc21 (relative stereo) | 55.53% |
| Clc1ccc([C@@H]2CC[C@@H](NCCCCc3ccccc3)c3ccccc32)cc1Cl (relative stereo) | 58.59% |
| Cc1ccc(CN[C@@H]2CC[C@@H](c3ccc(Cl)c(Cl)c3)c3ccccc32)cc1 (relative stereo) | 59.01% |
| N[C@@H]1CC[C@@H](c2ccc(Cl)c(Cl)c2)c2ccccc21 (relative stereo) [DASOTRALINE] | 56.94% |
| Clc1ccc([C@@H]2CC[C@@H](NCC3CCCCC3)c3ccccc32)cc1Cl (relative stereo) | 62.02% |
| Clc1ccc([C@@H]2CC[C@@H](NCCc3c[nH]c4ccccc34)c3ccccc32)cc1Cl (relative stereo) | 59.42% |
| O=C(CCCCl)N[C@@H]1CC[C@@H](c2ccc(Cl)c(Cl)c2)c2ccccc21 (relative stereo) | 58.31% |
| Clc1ccc([C@@H]2CC[C@@H](NCCN3CCNCC3)c3ccccc32)cc1Cl | 28.28% |
| CCCCN[C@@H]1CC[C@@H](c2ccc(Cl)c(Cl)c2)c2ccccc21 (relative stereo) | 50.99% |
| CC(C)CN[C@@H]1CC[C@@H](c2ccc(Cl)c(Cl)c2)c2ccccc21 (relative stereo) | 30.22% |
| CC(=O)N[C@@H]1CC[C@@H](c2ccc(Cl)c(Cl)c2)c2ccccc21 (relative stereo) | 77.31% |
| CC1=NN(c2ccccc2)C(=O)C1 [EDARAVONE] | 64.15% |
| CN[C@@H]1CC[C@@H](c2ccc(Cl)c(Cl)c2)c2ccccc21 (racemic) | 65.74% |
| Clc1ccc([C@@H]2CC[C@@H](NCc3cccc4ccccc34)c3ccccc32)cc1Cl (relative stereo) | 65.01% |

Tested on: Cortical neurone
Experiment: Cytotoxicity against primary C57BL/6J E14-17 mouse Cortical neuron assessed as decrease in cell viability at 1 uM incubated for 24 hrs by CCK-8 assay relative to control
Assay type: toxicity, cell-based
Details: not given

| SMILES | Activity |
| --- | --- |
| CCCCCC(C)N[C@@H]1CC[C@@H](c2ccc(Cl)c(Cl)c2)c2ccccc21 (relative stereo) | 89.48% |
| Clc1ccc([C@@H]2CC[C@@H](NC3CCCCC3)c3ccccc32)cc1Cl (relative stereo) | 97.01% |
| CC(N[C@@H]1CC[C@@H](c2ccc(Cl)c(Cl)c2)c2ccccc21)c1ccccc1 (some centres not stated) | 98.48% |
| Clc1ccc([C@@H]2CC[C@@H](NCc3ccc4c(c3)OCO4)c3ccccc32)cc1Cl (relative stereo) | 104.95% |
| COc1ccc(CN[C@@H]2CC[C@@H](c3ccc(Cl)c(Cl)c3)c3ccccc32)cc1OC (relative stereo) | 99.79% |
| FC(F)(F)c1cccc(CN[C@@H]2CC[C@@H](c3ccc(Cl)c(Cl)c3)c3ccccc32)c1 (relative stereo) | 90.68% |
| CCCN[C@@H]1CC[C@@H](c2ccc(Cl)c(Cl)c2)c2ccccc21 (relative stereo) | 96.43% |
| Clc1ccc([C@@H]2CC[C@@H](NCCCCc3ccccc3)c3ccccc32)cc1Cl (relative stereo) | 98.28% |
| Cc1ccc(CN[C@@H]2CC[C@@H](c3ccc(Cl)c(Cl)c3)c3ccccc32)cc1 (relative stereo) | 92.92% |
| N[C@@H]1CC[C@@H](c2ccc(Cl)c(Cl)c2)c2ccccc21 (relative stereo) [DASOTRALINE] | 99.05% |
| Clc1ccc([C@@H]2CC[C@@H](NCC3CCCCC3)c3ccccc32)cc1Cl (relative stereo) | 100.42% |
| Clc1ccc([C@@H]2CC[C@@H](NCCc3c[nH]c4ccccc34)c3ccccc32)cc1Cl (relative stereo) | 104.13% |
| O=C(CCCCl)N[C@@H]1CC[C@@H](c2ccc(Cl)c(Cl)c2)c2ccccc21 (relative stereo) | 92.02% |
| Clc1ccc([C@@H]2CC[C@@H](NCCN3CCNCC3)c3ccccc32)cc1Cl | 90.76% |
| CCCCN[C@@H]1CC[C@@H](c2ccc(Cl)c(Cl)c2)c2ccccc21 (relative stereo) | 95.75% |
| CC(C)CN[C@@H]1CC[C@@H](c2ccc(Cl)c(Cl)c2)c2ccccc21 (relative stereo) | 96.1% |
| CC(=O)N[C@@H]1CC[C@@H](c2ccc(Cl)c(Cl)c2)c2ccccc21 (relative stereo) | 102.6% |
| CC1=NN(c2ccccc2)C(=O)C1 [EDARAVONE] | 98.61% |
| CN[C@@H]1CC[C@@H](c2ccc(Cl)c(Cl)c2)c2ccccc21 (racemic) | 94.5% |
| Clc1ccc([C@@H]2CC[C@@H](NCc3cccc4ccccc34)c3ccccc32)cc1Cl (relative stereo) | 95.27% |
